According to patent US20210260142A1, “COMPOSITIONS BASED ON DIETARY FIBERS AND ESSENTIAL OILS” (Ralco Nutrition, Inc., priority 2020, published 2021):

What was measured:
[1] = 3-Oil screening trial, 35 days, cocci stress; format: in vivo, Cobb 500 cockerels; conditions: product in feed
From the text: 640 1-day-old Cobb 500 cockerels were wing banded, weighed and randomly assigned to pens on the day of delivery. Each pen was 3 feet wide by 2 feet long by 2 feet tall holding 10 birds each; density was 0.6 sq. ft. per bird. The pens were contained within two battery cages in a single barn, each with battery cage having 4 levels and 8 pens per level for a total of 32 pens per battery. The experimental period was 35 days divided into three (3) feeding stages, starter, grower and finisher. Bird weight, average daily gain (ADG), average daily feed intake (ADFI), feed to gain (FG) and Coccidiosis oocyte counts were determined at each period. This study was performed with a large number of treatments in order to screen a number of possible treatments for further future investigations. […]

Eimeria acervulina = test: Anticoccidial efficacy battery-cage study, E. acervulina lesions and oocysts
Eimeria maxima = test: Anticoccidial efficacy battery-cage study, E. maxima lesions and oocysts
Eimeria tenella = test: Anticoccidial efficacy battery-cage study, E. tenella lesions and oocysts
[2] = Day 20, Johnson and Reid 1970 scoring, five birds per cage

Structure (SMILES)	Average bird weights at thirty-five (35) days [1] [grams]	Lesion Scores Eimeria acervulina (Eimeria acervulina; [2]) [days]	Oocysts/Gram Eimeria acervulina (Eimeria acervulina; feces Day 19 to Day 20) [cd Oocysts/Gram]	Lesion Scores Eimeria maxima (Eimeria maxima; [2]) [days]	Oocysts/Gram Eimeria maxima (Eimeria maxima; feces Day 19 to Day 20) [bc Oocysts/Gram]	Lesion Scores Eimeria tenella (Eimeria tenella; [2]) [b]	Oocysts/Gram Eimeria tenella (Eimeria tenella; feces Day 19 to Day 20) [bc Oocysts/Gram]
O=CC=Cc1ccccc1 [cinnamaldehyde]	2180.2						
CC[C@@H](C(=O)[C@@H](C)[C@@H](O)[C@H](C)[C@@H]1O[C@@H]([C@@H](CC)C(=O)O)CC[C@@H]1C)[C@H]1O[C@]2(C=C[C@@H](O)[C@]3(CC[C@@](C)([C@H]4CC[C@](O)(CC)[C@H](C)O4)O3)O2)[C@H](C)C[C@@H]1C [Salinomycin]		0.8	18403	0.7	212	0.9	1843
